Reference: patent US8119624B2, “Fused phenyl amido heterocyclic compounds” (Pfizer Inc., priority 2006, dated 2012)
pEC50: −log10 of the molar value. Read-outs that look alike come from different tables or passages of the source.

Target: T1, Full-length glucokinase (beta cell isoform) (Homo sapiens, UniProt P35557)
T1 construct: Full-length glucokinase (beta cell isoform) was His-tagged at N-terminus; His tag (N); made in house
T1 sequence (P35557 1-465): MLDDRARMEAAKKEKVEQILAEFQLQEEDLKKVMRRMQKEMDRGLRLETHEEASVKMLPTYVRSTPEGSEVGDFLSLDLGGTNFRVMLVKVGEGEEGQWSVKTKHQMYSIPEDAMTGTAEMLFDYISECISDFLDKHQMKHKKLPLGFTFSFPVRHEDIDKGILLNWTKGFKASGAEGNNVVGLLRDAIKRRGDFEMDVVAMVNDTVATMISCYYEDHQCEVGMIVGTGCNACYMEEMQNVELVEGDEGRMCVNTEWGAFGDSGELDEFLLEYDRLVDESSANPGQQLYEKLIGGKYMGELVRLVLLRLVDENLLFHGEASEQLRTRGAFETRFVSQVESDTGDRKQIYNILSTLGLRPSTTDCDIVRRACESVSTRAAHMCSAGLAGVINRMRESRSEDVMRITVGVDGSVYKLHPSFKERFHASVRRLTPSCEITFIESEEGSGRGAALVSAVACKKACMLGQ
Assay: Glucokinase biochemical assay (PK/LDH-coupled, NADH depletion at 340 nm): % activation, EC50, % max activation
Conditions: 5 mM glucose; for activation at 10 µM: read-out: % Activation at 10 uM; for pEC50: read-out: EC50; for Emax: read-out: % Max Activation
In short: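 Activation expressed as (Va/Vo−1)×100, where initial rates with and without compound come from NADH depletion at 340 nm over 200–900 s. Enzyme is His-tagged human beta-cell GK, full length, run at room temperature in HEPES buffer with 1 mM ATP and 5 mM glucose. DMSO 1%.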

[1] = 10 uM compound, % Activation=(Va/Vo−1)×100

Compound | activation at 10 µM [1] [%] | pEC50 (GK activation) | Emax (fitted maximum activation) [%] | further results
COc1ccnc(NC(=O)c2cc(Oc3ccc(S(C)(=O)=O)cc3)c3cc(C)oc3c2)c1 [Example 259, N-(4-Methoxypyridin-2-yl)-2-methyl-4-(4-(methylsulfonyl)-phenoxy)-benzofuran-6-carboxamide] | 63.6 | 6.00 | 60 | 
Cn1ccc(NC(=O)c2cc(Oc3ccc(-c4ncon4)c(Cl)c3)c3c(c2)OC(C)(C)C3)n1 [Example 189, 4-(3-Chloro-4-[1,2,4]oxadiazol-3-yl-phenoxy)-2,2-dimethyl-2,3-dihydro-benzofuran-6-carboxylic acid (1-methyl-1H-pyrazol-3-yl)-amide] | 219 | 6.06 | 245 | 
Cc1ccc(NC(=O)c2cc(Oc3ccc(C(=O)N(C)C)cc3)c3c(C)csc3c2)nc1 [Example 353, 4-{4-[(Dimethylamino)carbonyl]phenoxy}-3-methyl-N-(5-methylpyridin-2-yl)-1-benzothiophene-6-carboxamide] | 3.4 |  |  | 
CCS(=O)(=O)c1ccc(Oc2cc(C(=O)Nc3ccn(C)n3)cc3c2CC(C)(C)O3)cc1F [Example 136, 4-(4-Ethanesulfonyl-3-fluoro-phenoxy)-2,2-dimethyl-2,3-dihydro-benzofuran-6-carboxylic acid (1-methyl-1H-pyrazol-3-yl)-amide] | 237 | 6.92 | 236 | 
Cc1nc2cc(C(=O)Nc3ccn(C)n3)cc(Oc3ccc(S(C)(=O)=O)cc3)c2o1 [Example 368, 2-Methyl-N-(1-methyl-1H-pyrazol-3-yl)-7-[4-(methylsulfonyl)-phenoxy]-1,3-benzoxazole-5-carboxamide] | 48.2 | < 5.00 |  | 
CS(=O)(=O)c1ccc(Oc2cc(C(=O)Nc3ccccn3)cc3scnc23)cc1 [Example 372, 4-[4-(Methylsulfonyl)phenoxy]-N-pyridin-2-yl-1,3-benzothiazole-6-carboxamide] | 29.3 |  |  | 
Cc1cc2c(Oc3ccc(C(=O)N(C)C)c(F)c3)cc(C(=O)Nc3ccn(C)n3)cc2s1 [Example 362, 4-(4-(Dimethylcarbamoyl)-3-fluorophenoxy)-2-methyl-N-(1-methyl-1H-pyrazol-3-yl)benzo[b]thiophene-6-carboxamide] | 25.9 |  |  | 
Cn1ccc(NC(=O)c2cc(Oc3ccc(S(C)(=O)=O)c(F)c3)c3c(c2)OC(C)(C)C3)n1 [Example 114, 4-(3-Fluoro-4-methanesulfonyl-phenoxy)-2,2-dimethyl-2,3-dihydro-benzofuran-6-carboxylic acid (1-methyl-1H-pyrazol-3-yl)-amide] | 156 | 6.69 | 164 | 
CN(C)S(=O)(=O)c1ccc(Oc2cc(C(=O)Nc3ccn(C)n3)cc3c2CC(C)(C)O3)cc1 [Example 122, 4-(4-Dimethylsulfamoyl-phenoxy)-2,2-dimethyl-2,3-dihydro-benzofuran-6-carboxylic acid (1-methyl-1H-pyrazol-3-yl)-amide] | 184 | 7.00 | 159 | 
Cn1ccc(NC(=O)c2cc(Oc3ccc(C(=O)N4CC[C@@H](F)C4)c(F)c3)c3c(c2)OC(C)(C)C3)n1 [Example 58, 4-[3-Fluoro-4-((R)-3-fluoro-pyrrolidine-1-carbonyl)-phenoxy]-2,2-dimethyl-2,3-dihydro-benzofuran-6-carboxylic acid(1-methyl-1H-pyrazol-3-yl)-amide] | 55.3 | 7.12 | 88 | 
Cn1ccc(NC(=O)c2cc(Oc3ccc(-c4ncon4)c(F)c3)c3c(c2)OC(C)(C)C3)n1 [Example 185, 4-(3-Fluoro-4-[1,2,4]oxadiazol-3-yl-phenoxy)-2,2-dimethyl-2,3-dihydro-benzofuran-6-carboxylic acid (1-methyl-1H-pyrazol-3-yl)-amide] | 248 | 6.98 | 227 | 
Cc1ccc(NC(=O)c2cc(Oc3ccc(S(C)(=O)=O)c(F)c3)c3c(c2)OC(C)(CO)C3)nc1 (stereo not shown) [Example 233, 4-(3-Fluoro-4-methanesulfonyl-phenoxy)-2-hydroxymethyl-2-methyl-2,3-dihydro-benzofuran-6-carboxylic acid (5-methyl-pyridin-2-yl)-amide] | 201 | 7.19 | 165 | 
CCNC(=O)c1ccc(Oc2cc(C(=O)Nc3cnn(C)n3)cc3c2CC(C)(C)O3)cn1 [Example 174, 5-[2,2-Dimethyl-6-(2-methyl-2H-[1,2,3]triazol-4-ylcarbamoyl)-2,3-dihydro-benzofuran-4-yloxy]-pyridine-2-carboxylic acid ethylamide] | 238 | 6.08 | 258 | 
COCC1(C)Cc2c(Oc3ccc(C(=O)N4CCC4)c(F)c3)cc(C(=O)Nc3ccn(C)n3)cc2O1 (stereo not shown) [Example 242, 4-[4-(Azetidine-1-carbonyl)-3-fluoro-phenoxy]-2-methoxymethyl-2-methyl-2,3-dihydro-benzofuran-6-carboxylic acid (1-methyl-1H-pyrazol-3-yl)-amide] | 140 | 7.20 | 144 | 
Cc1ccc(NC(=O)c2cc(Oc3ccc(C(=O)N(C)C)c(F)c3)c3c(c2)OC(C)(CO)C3)nc1 (stereo not shown) [Example 239, 4-(4-Dimethylcarbamoyl-3-fluoro-phenoxy)-2-hydroxymethyl-2-methyl-2,3-dihydro-benzofuran-6-carboxylic acid (5-methyl-pyridin-2-yl)-amide] | 32.1 | 7.70 | 42 | 
Cc1ccc(NC(=O)c2cc(Oc3ccc(S(C)(=O)=O)cc3)c3cc(C)oc3c2)nc1 [Example 252, 2-Methyl-N-(5-methylpyridin-2-yl)-4-(4-(methylsulfonyl)-phenoxy)-benzofuran-6-carboxamide] | 108 | 6.11 | 107 | 
Cc1cc2c(Oc3ccc(S(C)(=O)=O)cc3)cc(C(=O)Nc3ccc(C(F)(F)F)cn3)cc2o1 [Example 253, 2-Methyl-4-(4-(methylsulfonyl)phenoxy)-N-(5-(trifluoromethyl)-pyridin-2-yl)benzofuran-6-carboxamide] | 32.1 |  |  | 
COCc1cc2c(Oc3ccc(S(C)(=O)=O)cc3)cc(C(=O)Nc3cnc(N(C)C)cn3)cc2o1 [Example 311, N-[5-(Dimethylamino)pyrazin-2-yl]-2-(methoxymethyl)-4-[4-(methylsulfonyl)-phenoxy]-1-benzofuran-6-carboxamide] | 106 | 6.42 | 114 | 
COCC1Cc2c(Oc3ccc(C(=O)N(C)C)cc3)cc(C(=O)Nc3ccn(C)n3)cc2O1 (single isomer, unassigned; (-)) [Example 213, (−)-4-(4-Dimethylcarbamoyl-phenoxy)-2-methoxymethyl-2,3-dihydro-benzofuran-6-carboxylic acid (1-methyl-1H-pyrazol-3-yl)-amide] |  | 6.05 |  | % Activation at 10 uM [1]: 83.1%; % Max Activation (fitted maximum activation): 113%
Cc1cc2c(Oc3ccc(S(=O)(=O)N4CCC4)cc3)cc(C(=O)Nc3ccc(Cl)cn3)cc2o1 [Example 300, 4-(4-(Azetidin-1-ylsulfonyl)phenoxy)-N-(5-chloropyridin-2-yl)-2-methyl-benzofuran-6-carboxamide] | 53.4 | 6.15 | 56 | 
Cn1ncc(NC(=O)c2cc(Oc3ccc(-c4ncon4)c(F)c3)c3c(c2)OC(C)(C)C3)n1 [Example 186, 4-(3-Fluoro-4-[1,2,4]oxadiazol-3-yl-phenoxy)-2,2-dimethyl-2,3-dihydro-benzofuran-6-carboxylic acid (2-methyl-2H-[1,2,3]triazol-4-yl)-amide] | 135 | 6.80 | 234 | 
Cc1ccc(NC(=O)c2cc(Oc3ccc(S(C)(=O)=O)cc3)c3c(c2)C(=O)N(CC(C)C)C3)nc1 [Example 381, 2-Isobutyl-N-(5-methylpyridin-2-yl)-7-(4-(methylsulfonyl)-phenoxy)-3-oxoisoindoline-5-carboxamide] |  |  |  | pEC50 (1 mM ATP, room temperature): 5.52; activation at 10 µM (compound at 10 uM, 1 mM ATP, room temperature): 81%; Emax (fitted maximum activation, 1 mM ATP): 132%
COc1cnc(NC(=O)c2cc(Oc3ccc(S(C)(=O)=O)cn3)c3cc(C)oc3c2)cn1 [Example 284, N-(5-Methoxypyrazin-2-yl)-2-methyl-4-(5-(methylsulfonyl)-pyridin-2-yloxy)-benzofuran-6-carboxamide] | 86.1 | 5.26 | 218 | 
C[C@@H](Cc1ccccc1)Oc1cc(C(=O)Nc2ccn(C)n2)cc2ccoc12 [Example 336, 7-[(1S)-1-Methyl-2-phenylethoxy]-N-(1-methyl-1H-pyrazol-3-yl)-1-benzofuran-5-carboxamide] | 8.4 |  |  | 
